Measurements taken from paper PMC10046901, “Molecular Analysis of the Superior Efficacy of a Dual Epidermal Growth Factor Receptor (EGFR)-DNA-Targeting Combi-Molecule in Comparison with Its Putative Prodrugs 6-Mono-Alkylamino- and 6,6-Dialkylaminoquinazoline in a Human Osteosarcoma Xenograft Model” (Cells, 2023).

What was measured:
U2-OS = test: cells; assay type: cell-based; conditions: Homo sapiens, U2OS, 120 h, read-out: IC50 growth inhibition
Saos-2 = test: cells; assay type: cell-based, human; conditions: Homo sapiens, SAOS-2, 120 h, read-out: IC50 growth inhibition
MG-63 = test: cells; assay type: cell-based; conditions: Homo sapiens, MG-63, 120 h, read-out: IC50 growth inhibition
MNNG/HOS = test: cells; assay type: cell-based; conditions: 120 h, read-out: IC50 growth inhibition
KHOS/NP = test: cells; assay type: cell-based; conditions: Homo sapiens, 120 h, read-out: IC50 growth inhibition
[1] = test system: several other osteosarcoma cell lines; design: method as in PMID 23091447; conditions: concentrations of up to 20 μM; cited from earlier work

| SMILES | IC50 (U2-OS) [µM] | IC50 (Saos-2) [µM] | IC50 (MG-63) [µM] | IC50 (MNNG/HOS) [µM] | IC50 (KHOS/NP) [µM] | effect on viability of osteosarcoma cell lines [1] |
| --- | --- | --- | --- | --- | --- | --- |
| O=C(O)CCCc1ccc(N(CCCl)CCCl)cc1 [Chlorambucil, chlorambucil, reference compound] | 9.59 ± 0.55 | 7.53 ± 0.75 | 13.1 ± 1.28 | 12.1 ± 1.01 | 9.25 ± 1.35 | – |
| COc1cc2ncnc(Nc3ccc(F)c(Cl)c3)c2cc1OCCCN1CCOCC1 [Gefitinib, gefitinib] | – | – | – | – | – | did not reduce the viability |
